Reference: US20150173371A1 (Dow AgroSciences LLC, priority 2013, published 2015)
“And” between values parts separate entries of the source, which are not always exact repeats. Equal entries are not always repeated. Where two headings read alike, the source gives them in different places.

Assays:
[1] = test system: Conyza canadensis (horseweed, ERICA); settings: field trial
Procedure: (§1) Field trials were conducted under normal field conditions in multiple states in the United States, including but not limited to Alabama, Mississipi, South Carolina and Tennessee; and in Brazil, including but not limited to the states of Goias, Mato Grosso, Parana, Rio Grande do Sul, and Sao Paulo. Trials were established as RCB (randomized complete block) design, with 3-4 replicates per treatment, and plot sizes varying from 2-3 meters (m) wide by 4-8 m long. Treatments were applied with small plot backpack sprayers, using pressurized carbon dioxide (CO2) as propellant. Pressure varied from 22-40 PSI, with spray tips typically of a Flat Fan type applying water diluent at 150 L/ha. Boom sizes varied from 2-3 m in width. Treatments were applied to soybean, cotton or fallow crop land. Weed sizes varied, but all treatments were applied as post-emergence treatments to weeds from 2 leaf to 2 tiller growth stages varying from 2-15 inches (in) in height. No additional adjuvant was mixed with the treatments applied in the field
(§2) The treated plots and control plots were rated blind at various intervals after application.
(§3) Colby's equation was used to determine the herbicidal effects expected from the mixtures (Colby, S. R. Calculation of the synergistic and antagonistic response of herbicide combinations. Weeds 1967 15, 20-22). A t-test (alpha=0.05) between Colby predictions and observed combinations was used to test for significant differences indicating synergy or antagonism.
(§4) The following equation was used to calculate the expected activity of mixtures containing two active ingredients, A and B:
(§5) Expected=A+B−(A×B/100) • A=observed efficacy of active ingredient A at the same concentration as used in the mixture; • B=observed efficacy of active ingredient B at the same concentration as used in the mixture.

[2] = test system: Conyza bonariensis (hairy fleabane, ERIBO); settings: field trial
Procedure: as §1, §2, §3, §4, §5

[3] = test system: Ipomoea quamoclit (cypress vine morningglory, IPOQU); settings: 7DAA, field trial, 1065 g ae/ha alone
Procedure: as §1, §2, §3, §4, §5

[4] = test system: Ambrosia artemisiifolia (common ragweed, AMBEL); experiment: Greenhouse trial, % visual weed control; format: in vivo; settings: 14DAA, 100 g ae/ha alone
Procedure: (§6) Greenhouse trials were conducted under controlled environment greenhouse conditions, with plants grown in pots with Metromix soil and bottom watered. Treatments were applied with 3 replicates per treatment, using a track sprayer with 2 flat fan nozzles at 40 pounds per square inch (PSI). Water was used as the diluent at 140 liters per hectare (L/ha), with weeds being 2-4 leaf stage and approximately 3 inches in height at treatment.

[5] = test system: Elymus repens (quackgrass, AGRRE); experiment: Greenhouse trial, % visual weed control; format: in vivo; settings: 14DAA, 200 g ae/ha alone
Procedure: as §6

[6] = test system: Chenopodium album (common lambsquarter, CHEAL); experiment: Greenhouse trial, % visual weed control; format: in vivo; settings: 14DAA
Procedure: as §6

[7] = test system: Abutilon theophrasti (velvetleaf, ABUTH); experiment: Greenhouse trial, % visual weed control; format: in vivo; settings: 14DAA
Procedure: as §6

[8] = test system: Sesbania exaltata (hemp sesbania, SEBEX); experiment: Field trial, % visual weed control; format: in vivo; settings: 8DAA, 800 g ae/ha alone
Description: (§7) Boom sizes varied from 2-3 m in width.

[9] = test system: Ipomoea grandifolia (Corda-de-viola, IAQGR); experiment: Field trial, % visual weed control; format: in vivo; settings: 17DAA, 780 g ae/ha alone
Description: as §7

[10] = test system: Commelina benghalensis (hairy wandering Jew, COMBE); experiment: Field trial, % visual weed control; format: in vivo; settings: 780 g ae/ha alone
Description: as §7

[11] = test system: Jacquemontia tamnifolia (smallflower morningglory, IAQTA); experiment: Field trial, % visual weed control; format: in vivo; settings: 7DAA, 1065 g ae/ha alone
Description: as §7

[12] = test system: Ipomoea species (morningglory, IPOSS); experiment: Field trial, % visual weed control; format: in vivo; settings: 8DAA, 800 g ae/ha alone
Description: as §7

[13] = test system: Spermacoce latifolia (broadleaf buttonweed, BOILF); experiment: Field trial, % visual weed control; format: in vivo
Description: as §7

[14] = test system: Raphanus raphanistrim (wild radish, RAPRA); experiment: Field trial, % visual weed control; format: in vivo; settings: 6DAA, 780 g ae/ha alone
Description: as §7

[15] = test system: Brachiaria decumbens (Surinam grass, BRADC); experiment: Field trial, % visual weed control; format: in vivo; settings: 12DAA, 684 g ae/ha alone
Description: as §7

[16] = test system: Tridax procumbens L (tridax daisy, TRQPR); experiment: Field trial, % visual weed control; format: in vivo; settings: 16DAA, 780 g ae/ha alone
Description: as §7

[17] = test system: Euphorbia heterophylla (wild poinsettia, EPHHL); experiment: Field trial, % visual weed control; format: in vivo; settings: 28DAA, 585 g ae/ha alone
Description: as §7

[18] = test system: Amaranthus palmeri (Palmer pigweed, AMAPA); experiment: Field trial, % visual weed control; format: in vivo
Description: as §7

[19] = test system: Euphorbia hirta (garden spurge, EPHHI); experiment: Field trial, % visual weed control; format: in vivo
Description: as §7

[20] = test system: Glycine max (soybean, glyphosate tolerant, GLXMA); experiment: Field trial, % visual weed control; format: in vivo
Description: as §7

For O=C(O)COc1ccc(Cl)cc1Cl [2,4-D-Choline, 2-hydroxy-N,N,N-trimethylethanaminium 2-(2,4-dichlorophenoxyl)acetate], the “Mean % Weed Control” value ([1]; 10DAA, 360 g ae/ha alone) was 11.7%, the “Mean % Weed Control” value ([1]; 10DAA, 720 g ae/ha alone) was 15% and the “Mean % Weed Control” value ([1]; 14DAA, 800 g ae/ha alone) was 58.8%. For the same compound, the “Mean % Weed Control” value ([1]; 15DAA, 360 g ae/ha alone) was 16.7%, the “Mean % Weed Control” value ([1]; 15DAA, 720 g ae/ha alone) was 21.7% and the “Mean % Weed Control” value ([1]; 21DAA, 800 g ae/ha alone) was 66.3%. The “Mean % Weed Control” value ([1]; 28DAA, 800 g ae/ha alone) was 50.0%, the “Mean % Weed Control” value ([1]; 31DAA, 360 g ae/ha alone) was 25% and the “Mean % Weed Control” value ([1]; 31DAA, 720 g ae/ha alone) was 40%. For the same compound, the “Mean % Weed Control” value ([2]; 6DAA, 720 g ae/ha alone) was 5.0%, the “Mean % Weed Control” value ([2]; 6DAA, 1080 g ae/ha alone) was 5.0% and the “Mean % Weed Control” value ([2]; 7DAA, 780 g ae/ha alone) was 5.0% and 12.5%. For the same compound, the “Mean % Weed Control” value ([2]; 10DAA, 780 g ae/ha alone) was 46.3%, the “Mean % Weed Control” value ([2]; 20DAA, 780 g ae/ha alone) was 34.5% and the “Mean % Weed Control” value ([2]; 21DAA, 780 g ae/ha alone) was 38.8%. The “Mean % Weed Control” value ([2]; 31DAA, 780 g ae/ha alone) was 53.8%, the “Mean % Weed Control” value ([2]; 36DAA, 780 g ae/ha alone) was 27.5% and 17.5% and the “Mean % Weed Control” value [3] was 81.3%. For the same compound, the “Mean % Weed Control” value [4] was 25.0%, the “Mean % Weed Control” value [5] was 0.0% and the “Mean % Weed Control” value ([6]; 100 g ae/ha alone) was 5.0%. The “Mean % Weed Control” value ([6]; 200 g ae/ha alone) was 61.7%, the “Mean % Weed Control” value ([6]; 400 g ae/ha alone) was 75.0% and the “Mean % Weed Control” value ([7]; 100 g ae/ha alone) was 28.3%. The “Mean % Weed Control” value ([7]; 200 g ae/ha alone) was 46.7%, the “Mean % Weed Control” value ([7]; 400 g ae/ha alone) was 73.3% and the “Mean % Weed Control” value ([7]; 800 g ae/ha alone) was 88.3%. For the same compound, the “Mean % Weed Control” value [8] was 32.5%, the “Mean % Weed Control” value [9] was 98.0% and the “Mean % Weed Control” value ([10]; 12DAA) was 70.0%. For the same compound, the “Mean % Weed Control” value ([10]; 15DAA) was 68.8% and 66.3%, the “Mean % Weed Control” value ([10]; 18DAA) was 43.8% and the “Mean % Weed Control” value ([10]; 27DAA) was 66.3%. The “Mean % Weed Control” value ([10]; 28DAA) was 67.5%, the “Mean % Weed Control” value ([10]; 35DAA) was 70.0% and the “Mean % Weed Control” value [11] was 80.0%. The “Mean % Weed Control” value [12] was 80.0%, the “Mean % Weed Control” value ([13]; 18DAA, 780 g ae/ha alone) was 37.5% and the “Mean % Weed Control” value ([13]; 21DAA, 780 g ae/ha alone) was 63.8%. The “Mean % Weed Control” value ([13]; 24DAA, 480 g ae/ha alone) was 30.0%, the “Mean % Weed Control” value ([13]; 27DAA, 780 g ae/ha alone) was 67.5% and the “Mean % Weed Control” value ([13]; 28DAA, 780 g ae/ha alone) was 68.8%. For the same compound, the “Mean % Weed Control” value [14] was 80.0%, the “Mean % Weed Control” value [15] was 7.5% and the “Mean % Weed Control” value [16] was 12.5%. The “Mean % Weed Control” value [17] was 65.0%, the “Mean % Weed Control” value ([18]; 7DAA, 800 g ae/ha alone) was 47.5% and the “Mean % Weed Control” value ([18]; 13DAA, 1065 g ae/ha alone) was 45.0%. The “Mean % Weed Control” value ([18]; 21DAA, 1065 g ae/ha alone) was 38.8%, the “Mean % Weed Control” value ([19]; 7DAA, 780 g ae/ha alone) was 13.8% and the “Mean % Weed Control” value ([19]; 18DAA, 780 g ae/ha alone) was 36.3%. For the same compound, the “Mean % Weed Control” value ([19]; 21DAA, 780 g ae/ha alone) was 0.0%, the “Mean % Weed Control” value ([19]; 24DAA, 480 g ae/ha alone) was 21.7% and the “Mean % Weed Control” value ([20]; 7DAA, 960 g ae/ha alone) was 50.0%. For the same compound, the “Mean % Weed Control” value ([20]; 16DAA, 456 g ae/ha alone) was 48.8%, the “Mean % Weed Control” value ([20]; 28DAA, 480 g ae/ha alone) was 58.8% and the “Mean % Weed Control” value ([20]; 28DAA, 960 g ae/ha alone) was 67.5%. For the same compound, the “Mean % Weed Control” value ([20]; 30DAA, 456 g ae/ha alone) was 60.0%.
